Experiments:
human CCR6 [1] = target: T1, human CCR6 (Homo sapiens, UniProt P51684); experiment: CHO-K1 CCR6 chemotaxis assay towards CCL20; type: cell-based; conditions: relative -Log IC50; CHO-K1 cells overexpressing human CCR6; migration towards 100 ng/ml CCL20; 4 h
T1 sequence (P51684 1-374): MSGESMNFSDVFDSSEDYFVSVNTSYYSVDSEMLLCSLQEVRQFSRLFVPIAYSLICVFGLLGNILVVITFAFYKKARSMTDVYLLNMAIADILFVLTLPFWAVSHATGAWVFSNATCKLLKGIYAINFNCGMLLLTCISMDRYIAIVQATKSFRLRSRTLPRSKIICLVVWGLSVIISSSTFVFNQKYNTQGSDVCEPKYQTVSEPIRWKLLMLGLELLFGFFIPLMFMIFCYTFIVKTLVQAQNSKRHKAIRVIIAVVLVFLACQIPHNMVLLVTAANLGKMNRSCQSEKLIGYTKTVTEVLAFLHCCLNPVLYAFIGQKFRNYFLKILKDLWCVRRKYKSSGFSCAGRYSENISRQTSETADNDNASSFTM
Source text: CHO-K1 CCR6 Chemotaxis Assay Towards CCL20
Cells overexpressing human CCR6 were used in the chemotaxis assay (DiscoverX, cAMP Hunter™ CHO-K1 CCR6 Gi Cell Line). Growth medium of these cells consisted of DMEM/F12, non-essential Amino acids (1×NEAA, Gibco 11140050), 10% FBS and 1× pen/strep (Gibco 15140). For the chemotaxis assay, Corning Transwell plates were used with a pore size of 8 m (Corning 351164). Cells were harvested using trypsin and diluted to 4*10^6 cells/ml in chemotaxis medium (DMEM, 0.25% BSA, pen/strep). Compounds were four-fold serially diluted in DMSO. Further dilutions were made in chemotaxis medium. Cells were incubated with test compounds for 30 min at 37° C. prior to initiation of the assay (2*10^6 cells/ml). Final DMSO concentration in the assay was 0.2%. Wells of the Transwell plates were filled with 200 μl chemotaxis medium containing 100 ng/ml CCL20 (R&D systems 360-MP). 50 μl of the cell/compound suspension was added to the inserts of the Transwell plates (100,000 cells/insert). The Transwell plates were placed in an incubator at 37° C., 5% CO2 for 4 h. After 4 h, the number of migrated cells was quantified using CellTiter Glo (Promega). Percentage inhibition values were calculated based on the low and high signal obtained with 0.2% DMSO in chemotaxis medium without and with CCL20, respectively. The relative −Log IC50 was determined with GraphPad Prism 9 using a four-parameter dose-response model.

human CCR6 [2] = target: T1, human CCR6; experiment: Human CCR6-CRE reporter assay; type: cell-based; design: The second construct contained the open reading frame of human CCR6 in the pUNO1 backbone; host or cells: 293FT cells; conditions: relative -Log IC50; 293FT cells transfected with human CCR6 and CRE-luciferase reporter; 6 μM Forskolin, 6 nM CCL20; 5 h
Procedure, shortened: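 293FT cells transiently co-transfected with human CCR6 and a CRE-luc2P reporter, used 48 h later. Compounds incubated with cells in medium containing 6 μM Forskolin and 6 nM CCL20 (assay-medium levels), 0.1% DMSO final, 5 h at 37° C; luminescence read, relative −Log IC50 from four-parameter fit.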

CN(C)C(=O)c1cccc(-c2ccc(S(=O)(=O)[C@H]3CC[C@H](Nc4ccc(S(F)(F)(F)(F)F)cc4)CC3)cc2)c1 [Example 19, N,N-dimethyl-4′-{[trans-4-{[4-(pentafluoro-λ^6-sulfanyl)phenyl]Amino}cyclohexyl]sulfonyl}-[1,1′-biphenyl]-3-carboxamide]
IC50 (human CCR6 [1]): 398 nM
IC50 (human CCR6 [2]): 63.1 nM

CNC(=O)c1cccc(-c2ccc(S(=O)(=O)[C@H]3CC[C@H](Nc4ccc(S(F)(F)(F)(F)F)cc4)CC3)cc2)c1 [Example 21, N-methyl-4′-{[trans-4-{[4-(pentafluoro-λ^6-sulfanyl)phenyl]Amino}cyclohexyl]sulfonyl}-[1,1′-biphenyl]-3-carboxamide]
IC50 (human CCR6 [1]): 12.6 nM
IC50 (human CCR6 [2]): 31.6 nM

CNC(=O)c1ccc(-c2ccc(S(=O)(=O)[C@H]3CC[C@H](Nc4ccc(S(F)(F)(F)(F)F)cc4)CC3)cc2)cn1 [Example 22, N-methyl-5-(4-{[trans-4-{[4-(pentafluoro-λ^6-sulfanyl)phenyl]Amino}cyclohexyl]sulfonyl}phenyl)pyridine-2-carboxamide]
IC50 (human CCR6 [1]): 100 nM
IC50 (human CCR6 [2]): 39.8 nM

NC(=O)c1cccc(-c2ccc(S(=O)(=O)[C@H]3CC[C@H](Nc4ccc(S(F)(F)(F)(F)F)cc4)CC3)cc2)c1 [Example 23, 4′-{[trans-4-{[4-(pentafluoro-λ^6-sulfanyl)phenyl]Amino}cyclohexyl]sulfonyl}-[1,1′-biphenyl]-3-carboxamide]
IC50 (human CCR6 [1]): 50.1 nM
IC50 (human CCR6 [2]): 50.1 nM

O=S(=O)(c1ccc(-c2cn3ccnc3cn2)cc1)N1CCC(Nc2ccc(S(F)(F)(F)(F)F)cc2)CC1 [Example 24, 1-(4-{imidazo[1,2-a]pyrazin-6-yl}benzenesulfonyl)-N-[4-(pentafluoro-λ^6-sulfanyl)phenyl]piperidin-4-amine]
IC50 (human CCR6 [1]): 501 nM
IC50 (human CCR6 [2]): 200 nM

CC(C)c1nnc2ccc(-c3ccc(S(=O)(=O)N4CCC(Nc5ccc(S(F)(F)(F)(F)F)cc5)CC4)cc3)cn12 [Example 28, N-[4-(pentafluoro-λ^6-sulfanyl)phenyl]-1-{4-[3-(propan-2-yl)-[1,2,4]triazolo[4,3-a]pyridin-6-yl]benzenesulfonyl}piperidin-4-amine]
IC50 (human CCR6 [1]): 5.01 nM
IC50 (human CCR6 [2]): 31.6 nM

CC(C)c1cnc2ccc(-c3ccc(S(=O)(=O)N4CCC(Nc5ccc(S(F)(F)(F)(F)F)cc5)CC4)cc3)cn12 [Example 29, N-[4-(pentafluoro-λ^6-sulfanyl)phenyl]-1-{4-[3-(propan-2-yl)imidazo[1,2-a]pyridin-6-yl]benzenesulfonyl}piperidin-4-amine]
IC50 (human CCR6 [1]): 50.1 nM
IC50 (human CCR6 [2]): 39.8 nM

COCc1nnc2ccc(-c3ccc(S(=O)(=O)N4CCC(Nc5ccc(S(F)(F)(F)(F)F)cc5)CC4)cc3)cn12 [Example 30, 1-{4-[3-(methoxymethyl)-[1,2,4]triazolo[4,3-a]pyridin-6-yl]benzenesulfonyl}-N-[4-(pentafluoro-λ^6-sulfanyl)phenyl]piperidin-4-amine]
IC50 (human CCR6 [1]): 251 nM
IC50 (human CCR6 [2]): 50.1 nM

N#Cc1cnc2ccc(-c3ccc(S(=O)(=O)[C@H]4CC[C@H](Nc5ccc(S(F)(F)(F)(F)F)cc5)CC4)cc3)cn12 [Example 33, 6-(4-{[trans-4-{[4-(pentafluoro-λ^6-sulfanyl)phenyl]Amino}cyclohexyl]sulfonyl}phenyl)imidazo[1,2-a]pyridine-3-carbonitrile]
IC50 (human CCR6 [1]): 7.94 nM
IC50 (human CCR6 [2]): 63.1 nM

O=S(=O)(c1ccc(-c2ccc3nncn3c2)cc1)[C@H]1CC[C@H](Nc2ccc(S(F)(F)(F)(F)F)cc2)CC1 [Example 36, 4-(pentafluoro-λ^6-sulfanyl)-N-[trans-4-(4-{[1,2,4]triazolo[4,3-a]pyridin-6-yl}benzenesulfonyl)cyclohexyl]aniline]
IC50 (human CCR6 [1]): 1580 nM
IC50 (human CCR6 [2]): 126 nM

NC(=O)c1n[nH]c2ccc(-c3ccc(S(=O)(=O)[C@H]4CC[C@H](Nc5ccc(S(F)(F)(F)(F)F)cc5)CC4)cc3)cc12 [Example 37, 5-(4-{[trans-4-{[4-(pentafluoro-λ^6-sulfanyl)phenyl]Amino}cyclohexyl]sulfonyl}phenyl)-1H-indazole-3-carboxamide]
IC50 (human CCR6 [1]): 3.98 nM
IC50 (human CCR6 [2]): 63.1 nM

NC(=O)c1nnc2ccc(-c3ccc(S(=O)(=O)[C@H]4CC[C@H](Nc5ccc(S(F)(F)(F)(F)F)cc5)CC4)cc3)cn12 [Example 39, 6-(4-{[trans-4-{[4-(pentafluoro-λ^6-sulfanyl)phenyl]Amino}cyclohexyl]sulfonyl}phenyl)-[1,2,4]triazolo[4,3-a]pyridine-3-carboxamide]
IC50 (human CCR6 [1]): 79.4 nM
IC50 (human CCR6 [2]): 251 nM

N#Cc1nnc2ccc(-c3ccc(S(=O)(=O)[C@H]4CC[C@H](Nc5ccc(S(F)(F)(F)(F)F)cc5)CC4)cc3)cn12 [Example 42, 6-(4-{[trans-4-{[4-(pentafluoro-λ^6-sulfanyl)phenyl]Amino}cyclohexyl]sulfonyl}phenyl)-[1,2,4]triazolo[4,3-a]pyridine-3-carbonitrile]
IC50 (human CCR6 [1]): 15.8 nM
IC50 (human CCR6 [2]): 251 nM

Cc1cn2cc(-c3ccc(S(=O)(=O)[C@H]4CC[C@H](Nc5ccc(S(F)(F)(F)(F)F)cc5)CC4)cc3)ncc2n1 [Example 43, 4-(pentafluoro-λ^6-sulfanyl)-N-[trans-4-(4-{2-methylimidazo[1,2-a]pyrazin-6-yl}benzenesulfonyl)cyclohexyl]aniline]
IC50 (human CCR6 [1]): 316 nM
IC50 (human CCR6 [2]): 158 nM

O=S(=O)(c1ccc(-c2cn3ccnc3cn2)cc1)[C@H]1CC[C@H](Nc2ccc(S(F)(F)(F)(F)F)cc2)CC1 [Example 44, 4-(pentafluoro-λ^6-sulfanyl)-N-[trans-4-(4-{imidazo[1,2-a]pyrazin-6-yl}benzenesulfonyl)cyclohexyl]aniline]
IC50 (human CCR6 [1]): 158 nM
IC50 (human CCR6 [2]): 158 nM

CNC(=O)c1ccc(-c2ccc(S(=O)(=O)[C@H]3CC[C@H](Nc4ccc(S(F)(F)(F)(F)F)cc4)CC3)cc2)nc1 [Example 47, N-methyl-6-(4-{[trans-4-{[4-(pentafluoro-λ^6-sulfanyl)phenyl]Amino}cyclohexyl]sulfonyl}phenyl)pyridine-3-carboxamide]
IC50 (human CCR6 [1]): 794 nM
IC50 (human CCR6 [2]): 63.1 nM

CNC(=O)c1cc(-c2ccc(S(=O)(=O)[C@H]3CC[C@H](Nc4ccc(S(F)(F)(F)(F)F)cc4)CC3)cc2)ccn1 [Example 48, N-methyl-4-(4-{[trans-4-{[4-(pentafluoro-λ^6-sulfanyl)phenyl]Amino}cyclohexyl]sulfonyl}phenyl)pyridine-2-carboxamide]
IC50 (human CCR6 [1]): 39.8 nM
IC50 (human CCR6 [2]): 39.8 nM

NC(=O)c1ccc(-c2ccc(S(=O)(=O)[C@H]3CC[C@H](Nc4ccc(S(F)(F)(F)(F)F)cc4)CC3)cc2)nc1 [Example 49, 6-(4-{[trans-4-{[4-(pentafluoro-λ^6-sulfanyl)phenyl]Amino}cyclohexyl]sulfonyl}phenyl)pyridine-3-carboxamide]
IC50 (human CCR6 [1]): 501 nM
IC50 (human CCR6 [2]): 79.4 nM

O=C1NCc2cc(-c3ccc(S(=O)(=O)[C@H]4CC[C@H](Nc5ccc(S(F)(F)(F)(F)F)cc5)CC4)cc3)ccc21 [Example 58, 5-(4-{[trans-4-{[4-(pentafluoro-λ^6-sulfanyl)phenyl]Amino}cyclohexyl]sulfonyl}phenyl)-2,3-dihydro-1H-isoindol-1-one]
IC50 (human CCR6 [1]): 15.8 nM
IC50 (human CCR6 [2]): 200 nM

O=C1Cc2ccc(-c3ccc(S(=O)(=O)[C@H]4CC[C@H](Nc5ccc(S(F)(F)(F)(F)F)cc5)CC4)cc3)cc2N1 [Example 59, 6-(4-{[trans-4-{[4-(pentafluoro-λ^6-sulfanyl)phenyl]Amino}cyclohexyl]sulfonyl}phenyl)-2,3-dihydro-1H-indol-2-one]
IC50 (human CCR6 [1]): 15.8 nM
IC50 (human CCR6 [2]): 158 nM

Source: patent US20260070902A1, “SULFONYL DERIVATIVES AS CCR6 INHIBITORS” (Hoffmann-La Roche Inc., priority 2022, published 2026)
